From US20020137929A1, “1 - (3-heterocyclylphenyl) isothiourea, -isourea, -guanidine and -amidine herbicidal agents” (Intellectual Property Department, BASF Aktiengesellschaft, priority 1998, published 2002)

Tests used:
ORYSAT (Rice, Tebonnet) [1] = assay: Postemergence herbicidal evaluation; type: in vivo, Oryza sativa, (L.) Tebonnet; settings: postemergence
Outline: (§1)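 Young plants, roughly two weeks from seeding, receive the active ingredient as a sprayed dispersion (acetone/water 50/50, 0.5% TWEEN 20) at 40 psi. Doses span about 0.0156 to 0.500 kg/ha. A visual score from 0 to 9 compares treated with control plants four to five weeks on.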

CYPIR (Rice Flatsedge) = assay: Preemergence weed control under flooded paddy conditions; type: in vivo, Cyperus iria; settings: rated 3-4 weeks after treatment
Outline: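 First, seeds or propagules go into the top 0.5 cm of silt loam; next, water is held 1.5 to 3 cm over the soil; then compound (50/50 acetone/water) is pipetted into it at about 0.0313 to 0.500 kg/ha; finally plants are rated visually 0-9 after three to four weeks.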

[2] = tested on: GLXMAW (Soybean, Williams); assay: Preemergence herbicidal evaluation; type: in vivo, Glycine max, (L.) Merr. cv Williams; settings: rated 4-5 weeks after treatment, rating scale 0-9
Outline: (§2)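 Each species is sown separately in potting soil over roughly an inch of soil before any emergence. The soil surface then receives an aqueous acetone spray delivering about 0.0156 to 0.500 kg/ha of compound. After four to five weeks, injury is scored from 0 to 9 relative to a control.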

CASOB (Sicklepod) = assay: Postemergence herbicidal evaluation; type: in vivo, Cassia obtusifolia; settings: postemergence
Outline: as §1

[3] = tested on: TRZAWR (Wheat, Winter, cv Riband); assay: Preemergence herbicidal evaluation; type: in vivo, Triticum aestivum; settings: rated 4-5 weeks after treatment, rating scale 0-9
Outline: as §2

GALAP (Galium) = assay: Preemergence herbicidal evaluation; type: in vivo, Galium aparine; settings: rated 4-5 weeks after treatment, rating scale 0-9
Outline: as §2

ECHCG (Barnyardgrass) = assay: Postemergence herbicidal evaluation; type: in vivo, Echinochloa crus-galli; settings: postemergence
Outline: as §1

[4] = tested on: CHEAL (Lambsquarters, Common); assay: Postemergence herbicidal evaluation; type: in vivo, Chenopodium album; settings: postemergence
Outline: as §1

ZEAMX (Corn, Field) = assay: Preemergence herbicidal evaluation; type: in vivo, Zea mays; settings: rated 4-5 weeks after treatment, rating scale 0-9
Outline: as §2

MOOVA (Monochoria) = assay: Preemergence weed control under flooded paddy conditions; type: in vivo, Monochoria vaginalis; settings: rated 3-4 weeks after treatment
Outline: (§3)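 Herbicidal effect is scored visually on a 0-9 scale against an untreated control, three to four weeks after compounds are pipetted into the flood water (1.5 to 3 cm deep) over seeds planted in silt loam at 0.5 cm depth. Rates: about 0.0313 to 0.500 kg/ha.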

[5] = tested on: SAGPY (Arrowhead (Pygmaea)); assay: as above; type: in vivo, Sagittaria pygmaea; settings: rated 3-4 weeks after treatment
Outline: as §3

SETVI (Foxtail, Green) = assay: Preemergence herbicidal evaluation; type: in vivo, Setaria viridis; settings: rated 4-5 weeks after treatment, rating scale 0-9
Outline: as §2

ORYSAT (Rice, Tebonnet) [6] = assay: Preemergence herbicidal evaluation; type: in vivo, Oryza sativa, (L.) Tebonnet; settings: rated 4-5 weeks after treatment, rating scale 0-9
Outline: as §2

## Cn1c(C(F)(F)F)cc(=O)n(-c2cc(N=C3SCC(=O)N3Cc3ccccn3)c(Cl)cc2F)c1=O [Compound 131]
ORYSAT (Rice, Tebonnet) [1]; rate 0.0156 kg/ha
  Herbicidal rating ORYSAT: 2.0
ORYSAT (Rice, Tebonnet) [1]; rate 0.0313 kg/ha
  Herbicidal rating ORYSAT: 2.5
ORYSAT (Rice, Tebonnet) [1]; rate 0.0625 kg/ha
  Herbicidal rating ORYSAT: 3.0
CYPIR (Rice Flatsedge); 0.1250 kg/ha
  herbicidal effect rating, CYPIR: 0.0
CYPIR (Rice Flatsedge); 0.2500 kg/ha
  herbicidal effect rating, CYPIR: 4.0
[2]; rate 0.0313 kg/ha
  Preemergence herbicidal rating GLXMAW: 0.0
[2]; rate 0.0625 kg/ha
  Preemergence herbicidal rating GLXMAW: 1.0
[2]; rate 0.1250 kg/ha
  Preemergence herbicidal rating GLXMAW: 1.0
[2]; rate 0.2500 kg/ha
  Preemergence herbicidal rating GLXMAW: 1.0
CASOB (Sicklepod); rate 0.0156 kg/ha
  Herbicidal rating CASOB: 1.0
CASOB (Sicklepod); rate 0.0313 kg/ha
  Herbicidal rating CASOB: 1.0
CASOB (Sicklepod); rate 0.0625 kg/ha
  Herbicidal rating CASOB: 3.0
[3]; rate 0.0313 kg/ha
  Preemergence herbicidal rating TRZAWR: 0.0
[3]; rate 0.0625 kg/ha
  Preemergence herbicidal rating TRZAWR: 0.0
[3]; rate 0.1250 kg/ha
  Preemergence herbicidal rating TRZAWR: 0.0
[3]; rate 0.2500 kg/ha
  Preemergence herbicidal rating TRZAWR: 0.0
GALAP (Galium); rate 0.0313 kg/ha
  Preemergence herbicidal rating GALAP: 0.0
GALAP (Galium); rate 0.0625 kg/ha
  Preemergence herbicidal rating GALAP: 3.0
GALAP (Galium); rate 0.1250 kg/ha
  Preemergence herbicidal rating GALAP: 2.0
GALAP (Galium); rate 0.2500 kg/ha
  Preemergence herbicidal rating GALAP: 9.0
ECHCG (Barnyardgrass); rate 0.0156 kg/ha
  Herbicidal rating ECHCG: 2.0
ECHCG (Barnyardgrass); rate 0.0313 kg/ha
  Herbicidal rating ECHCG: 2.0
ECHCG (Barnyardgrass); rate 0.0625 kg/ha
  Herbicidal rating ECHCG: 2.0
[4]; rate 0.0156 kg/ha
  Herbicidal rating CHEAL: 3.0
[4]; rate 0.0313 kg/ha
  Herbicidal rating CHEAL: 5.0
[4]; rate 0.0625 kg/ha
  Herbicidal rating CHEAL: 9.0
ZEAMX (Corn, Field); rate 0.0313 kg/ha
  Preemergence herbicidal rating ZEAMX: 0.0
ZEAMX (Corn, Field); rate 0.0625 kg/ha
  Preemergence herbicidal rating ZEAMX: 0.0
ZEAMX (Corn, Field); rate 0.1250 kg/ha
  Preemergence herbicidal rating ZEAMX: 0.0
ZEAMX (Corn, Field); rate 0.2500 kg/ha
  Preemergence herbicidal rating ZEAMX: 0.0
MOOVA (Monochoria); 0.1250 kg/ha
  herbicidal effect rating, MOOVA: 0.0
MOOVA (Monochoria); 0.2500 kg/ha
  herbicidal effect rating, MOOVA: 2.0
[5]; 0.1250 kg/ha
  herbicidal effect rating, SAGPY: 0.0
[5]; 0.2500 kg/ha
  herbicidal effect rating, SAGPY: 2.0
SETVI (Foxtail, Green); rate 0.0313 kg/ha
  Preemergence herbicidal rating SETVI: 0.0
SETVI (Foxtail, Green); rate 0.0625 kg/ha
  Preemergence herbicidal rating SETVI: 0.0
SETVI (Foxtail, Green); rate 0.1250 kg/ha
  Preemergence herbicidal rating SETVI: 0.0
SETVI (Foxtail, Green); rate 0.2500 kg/ha
  Preemergence herbicidal rating SETVI: 3.0
ORYSAT (Rice, Tebonnet) [6]; rate 0.0313 kg/ha
  Preemergence herbicidal rating ORYSAT: 0.0
ORYSAT (Rice, Tebonnet) [6]; rate 0.0625 kg/ha
  Preemergence herbicidal rating ORYSAT: 0.0
ORYSAT (Rice, Tebonnet) [6]; rate 0.1250 kg/ha
  Preemergence herbicidal rating ORYSAT: 0.0
ORYSAT (Rice, Tebonnet) [6]; rate 0.2500 kg/ha
  Preemergence herbicidal rating ORYSAT: 0.0

## Cn1c(C(F)(F)F)cc(=O)n(-c2cc(N=C3SCC(=O)N3Cc3cccnc3)c(Cl)cc2F)c1=O [Compound 132, 3-{4-Chloro-2-fluoro-5-{[4-oxo-3-(3-pyridylmethyl)-2-thiazolidinylidene]amino}phenyl}-1-methyl-6-(trifluoromethyl)-2,4 (1H,3H)-pyrimidinedione]
ORYSAT (Rice, Tebonnet) [1]; rate 0.0156 kg/ha
  Herbicidal rating ORYSAT: 2.0
ORYSAT (Rice, Tebonnet) [1]; rate 0.0313 kg/ha
  Herbicidal rating ORYSAT: 3.0
ORYSAT (Rice, Tebonnet) [1]; rate 0.0625 kg/ha
  Herbicidal rating ORYSAT: 3.5
CYPIR (Rice Flatsedge); 0.0313 kg/ha
  herbicidal effect rating, CYPIR: 0.0
CYPIR (Rice Flatsedge); 0.0625 kg/ha
  herbicidal effect rating, CYPIR: 0.0
CYPIR (Rice Flatsedge); 0.1250 kg/ha
  herbicidal effect rating, CYPIR: 0.0
CYPIR (Rice Flatsedge); 0.2500 kg/ha
  herbicidal effect rating, CYPIR: 3.0
[2]; rate 0.0625 kg/ha
  Preemergence herbicidal rating GLXMAW: 0.0
[2]; rate 0.1250 kg/ha
  Preemergence herbicidal rating GLXMAW: 0.0
[2]; rate 0.2500 kg/ha
  Preemergence herbicidal rating GLXMAW: 2.0
CASOB (Sicklepod); rate 0.0156 kg/ha
  Herbicidal rating CASOB: 1.0
CASOB (Sicklepod); rate 0.0313 kg/ha
  Herbicidal rating CASOB: 1.0
CASOB (Sicklepod); rate 0.0625 kg/ha
  Herbicidal rating CASOB: 6.0
[3]; rate 0.0625 kg/ha
  Preemergence herbicidal rating TRZAWR: 0.0
[3]; rate 0.1250 kg/ha
  Preemergence herbicidal rating TRZAWR: 0.0
[3]; rate 0.2500 kg/ha
  Preemergence herbicidal rating TRZAWR: 1.0
GALAP (Galium); rate 0.0625 kg/ha
  Preemergence herbicidal rating GALAP: 4.0
GALAP (Galium); rate 0.1250 kg/ha
  Preemergence herbicidal rating GALAP: 4.0
GALAP (Galium); rate 0.2500 kg/ha
  Preemergence herbicidal rating GALAP: 5.0
ECHCG (Barnyardgrass); rate 0.0156 kg/ha
  Herbicidal rating ECHCG: 1.0
ECHCG (Barnyardgrass); rate 0.0313 kg/ha
  Herbicidal rating ECHCG: 2.0
ECHCG (Barnyardgrass); rate 0.0625 kg/ha
  Herbicidal rating ECHCG: 2.0
[4]; rate 0.0156 kg/ha
  Herbicidal rating CHEAL: 4.0
[4]; rate 0.0313 kg/ha
  Herbicidal rating CHEAL: 4.0
[4]; rate 0.0625 kg/ha
  Herbicidal rating CHEAL: 9.0
ZEAMX (Corn, Field); rate 0.0625 kg/ha
  Preemergence herbicidal rating ZEAMX: 0.0
ZEAMX (Corn, Field); rate 0.1250 kg/ha
  Preemergence herbicidal rating ZEAMX: 0.0
ZEAMX (Corn, Field); rate 0.2500 kg/ha
  Preemergence herbicidal rating ZEAMX: 2.0
MOOVA (Monochoria); 0.0313 kg/ha
  herbicidal effect rating, MOOVA: 6.0
MOOVA (Monochoria); 0.0625 kg/ha
  herbicidal effect rating, MOOVA: 9.0
MOOVA (Monochoria); 0.1250 kg/ha
  herbicidal effect rating, MOOVA: 9.0
MOOVA (Monochoria); 0.2500 kg/ha
  herbicidal effect rating, MOOVA: 9.0
[5]; 0.0313 kg/ha
  herbicidal effect rating, SAGPY: 0.0
[5]; 0.0625 kg/ha
  herbicidal effect rating, SAGPY: 0.0
[5]; 0.1250 kg/ha
  herbicidal effect rating, SAGPY: 0.0
[5]; 0.2500 kg/ha
  herbicidal effect rating, SAGPY: 0.0
SETVI (Foxtail, Green); rate 0.0625 kg/ha
  Preemergence herbicidal rating SETVI: 0.0
SETVI (Foxtail, Green); rate 0.1250 kg/ha
  Preemergence herbicidal rating SETVI: 3.0
SETVI (Foxtail, Green); rate 0.2500 kg/ha
  Preemergence herbicidal rating SETVI: 9.0
ORYSAT (Rice, Tebonnet) [6]; rate 0.0625 kg/ha
  Preemergence herbicidal rating ORYSAT: 0.0
ORYSAT (Rice, Tebonnet) [6]; rate 0.1250 kg/ha
  Preemergence herbicidal rating ORYSAT: 0.0
ORYSAT (Rice, Tebonnet) [6]; rate 0.2500 kg/ha
  Preemergence herbicidal rating ORYSAT: 1.0
